Measured values reported in article PMC5840262, “Design, Synthesis and Evaluation of Branched RRWQWR-Based Peptides as Antibacterial Agents Against Clinically Relevant Gram-Positive and Gram-Negative Pathogens” (Frontiers in Microbiology, 2018).
Converted amounts (≈) assume the structure as drawn. Where two headings read alike, the source gives them in different places. Bridge positions count the residues as written; N and C are the ends. Square brackets hold non-standard residues; d marks the D form. Ends that are not written are not given here. Peptide text beside a SMILES is read from it. I, II: the chains in the order shown. Ahx = NCCCCCC(=O)O

How the values were obtained:
[1] = tested on: clinical isolates of Gram-positive bacteria (Enteroccocus faecium, Staphylococcus aureus); assay: Therapeutic index, Gram-positive clinical isolates; conditions: for Fold (GM peptide / GM tetrameric peptide): Gram-positive clinical isolates
Text: (§1) We determined the therapeutic index of each peptide, which we defined as the ratio of Maximum Hemolytic Activity (Hmax) to MIC50 (Hmax/MIC50).
The results are shown in Table 7 (Gram-positive) and Table 8 (Gram-negative). Regarding the Gram-positive bacteria, the palindromic, dimeric and tetrameric peptides were active chiefly against S. aureus. This trend was consistent with results of the experiments on the ATCC strains, in which these peptides were only active against the sensitive strain of the […] bacteria.

[2] = tested on: Staphylococcus aureus ATCC 33591 (resistant); conditions: S. aureus ATCC 33591, resistant strain; MIC50 previously obtained with the same assay (M7-A7); ref Leon-Calvijo et al., 2015; cited from earlier work
Text: Table 6 Therapeutic Index values for the RRWQWR-based peptides against the ATCC strains of HCAI-relevant bacteria. | column: Gram positive / MIC (μM) / ^e33591-^fR

[3] = tested on: Gram-positive ATCC strains (E. faecalis 29212, S. aureus 25923 and 33591); assay: Therapeutic index, Gram-positive ATCC strains; conditions: for Fold (GM peptide / GM tetrameric peptide): Gram-positive ATCC strains; for Gm, geometric mean of MIC50 values: Gram-positive ATCC strains 29212, 25923, 33591
Text: as §1
The therapeutic index (TI) is a ratio of the toxic dose of a substance to its therapeutically-active dose and can be calculated different ways (e.g., LD50/ED50). Here, we calculated a TI value for each peptide against all the Gram-positive or the Gram-negative ATCC strains, by dividing its Hmax by its MIC50 for the given group of strains. […] Additionally, to make our quantitative analysis more robust [geometric mean (Khachatryan et al., [2017]) and fold values], we have included MIC50 values for these peptides against S. aureus and K. pneumoniae that we previously obtained using the same assay, the M7-A7 method of the National Committee for Clinical Laboratory Standards (Leon-Calvijo et al., [2015]).

[4] = tested on: Klebsiella pneumonia ATCC 13883 (sensitive); conditions: K. pneumoniae ATCC 13883, sensitive strain; MIC50 previously obtained with the same assay (M7-A7); ref Leon-Calvijo et al., 2015; cited from earlier work
Text: Table 6 Therapeutic Index values for the RRWQWR-based peptides against the ATCC strains of HCAI-relevant bacteria. | column: Gram negative / MIC (μM) / ^k13883-^cS

[5] = tested on: P. aeruginosa ATCC-27853 (resistant); assay: Scanning electron microscopy of treated bacteria; format: cell-based, Pseudomonas aeruginosa; conditions: 3 × MIC50, 2 h, 37°C
Description: (§2) We observed bacterial morphology by SEM. The E. faecalis and P. aeruginosa strains were grown to mid-logarithmic phase, and adjusted spectrophotometrically to a McFarland standard of 0.5 (corresponding to ~1 × 10^8 CFU/mL). Subsequently, 1 mL of bacterial suspension was distributed into three tubes: one tube was treated with (RRWQWR)2KAhx at 3 × the MIC50; another tube, with (RRWQWR)4K2Ahx2C2 at the same concentration; and the third tube was left untreated, as a control. The samples were incubated aerobically at 37°C for 2 h, and the bacterial suspensions were centrifuged at 1,459 × g for 3 min and then, washed twice with Millonig's Phosphate Buffer (0.10 M, pH 7.4). For SEM, each sample was fixed with 1 mL of 2.5% glutaraldehyde at 4°C for 2 h. The fixed samples were dehydrated in an ethanol gradient (50, 70, 80, 90, and 100%) for 20 min and then, centrifuged at 1,459 × g for 10 min. The bacterial pellet was resuspended in 100% ethyl alcohol and air-dried. Finally, the slides were taped onto stubs, coated with gold using a Quorum Q150R sputter coater, and observed with an FEI Quanta 200-r microscope.
(§3) We used SEM to study the morphology of bacterial cells before and after treatment with either branched peptide (dimeric and tetrameric). To this end, each strain of E. faecalis and P. aeruginosa was first studied by SEM; then, independently treated in the exponential phase with either peptide at 3 × the corresponding MIC50 value for 2 h (except for the resistant E. faecalis strain, for which a peptide concentration of 200 μM was used); and finally, studied by SEM again.

[6] = tested on: P. aeruginosa ATCC-10145 (sensitive); assay: Scanning electron microscopy of treated bacteria; format: cell-based, Pseudomonas aeruginosa; conditions: 3 × MIC50, 2 h, 37°C
Description: as §2, §3

[7] = tested on: E. faecalis ATCC-29212 (sensitive); assay: Scanning electron microscopy of treated bacteria; format: cell-based, Enterococcus faecalis; conditions: 3 × MIC50, 2 h, 37°C
Description: as §2
We used SEM to study the morphology of bacterial cells before and after treatment with either branched peptide (dimeric and tetrameric). […]

[8] = tested on: Klebsiella pneumoniae ATCC 700603 (resistant); conditions: K. pneumoniae ATCC 700603, resistant strain; MIC50 previously obtained with the same assay (M7-A7); ref Leon-Calvijo et al., 2015; cited from earlier work
Text: Table 6 Therapeutic Index values for the RRWQWR-based peptides against the ATCC strains of HCAI-relevant bacteria. | column: Gram negative / MIC (μM) / ^l700603-^fR

[9] = tested on: Staphylococcus aureus ATCC 25923 (sensitive); conditions: S. aureus ATCC 25923, sensitive strain; MIC50 previously obtained with the same assay (M7-A7); ref Leon-Calvijo et al., 2015; cited from earlier work
Text: Table 6 Therapeutic Index values for the RRWQWR-based peptides against the ATCC strains of HCAI-relevant bacteria. | column: Gram positive / MIC (μM) / ^d25923-^cS

RWQWRWQWR [PLS]
Gm, geometric mean of MIC50 values [1]: 13.7

N=C(N)NCCC[C@H](NC(=O)[C@H](Cc1c[nH]c2ccccc12)NC(=O)[C@H](CCC(N)=O)NC(=O)[C@H](Cc1c[nH]c2ccccc12)NC(=O)[C@H](CCCNC(=N)N)NC(=O)[C@@H](N)CCCNC(=N)N)C(=O)NCCCC[C@H](NC(=O)[C@H](CCCNC(=N)N)NC(=O)[C@H](Cc1c[nH]c2ccccc12)NC(=O)[C@H](CCC(N)=O)NC(=O)[C@H](Cc1c[nH]c2ccccc12)NC(=O)[C@H](CCCNC(=N)N)NC(=O)[C@@H](N)CCCNC(=N)N)C(=O)NCCCCCC(N)=O [LfcinB (20–25)2] (I: H-RRWQWRK[Ahx]-NH2 / II: H-RRWQWR; amide I:7-II:C; N-terminus assumed)
MIC [2]: 24.1 µM (≈ 52.9 µg/mL)
Fold (GM peptide / GM tetrameric peptide) [3]: 3.1
Gm, geometric mean of MIC50 values [3]: 9.8 µM
MIC [4]: 9.0 µM (≈ 19.8 µg/mL)
Morphology of bacterial cells by SEM after treatment [5]: marked drop in population and severe morphological alterations
Morphology of bacterial cells by SEM after treatment [6]: clear reduction in population and caused morphological alterations
Gm, geometric mean of MIC50 values [1]: 16.4
Fold (GM peptide / GM tetrameric peptide) [1]: 2.4
Morphology of bacterial cells by SEM after treatment [7]: random organization with morphological alterations
MIC [8]: 7.3 µM (≈ 16 µg/mL)
MIC [9]: 3.0 µM (≈ 6.59 µg/mL)

(RRWQWR)4K2Ahx2C2 (disulfide) [LfcinB (20–25)4, branched tetrameric peptide (RRWQWR)4K2Ahx2C2, two dimers linked by a cysteine disulfide bridge]
MIC [2]: 5.9 µM
Fold (GM peptide / GM tetrameric peptide) [3]: 1.0
Gm, geometric mean of MIC50 values [3]: 3.1 µM
MIC [4]: 12.0 µM
Morphology of bacterial cells by SEM after treatment [5]: disintegrated and irregularly-shaped mucoid cells
Morphology of bacterial cells by SEM after treatment [6]: very heterogeneous population and to alterations in the cell surface
Fold (GM peptide / GM tetrameric peptide) [1]: 1.0
Gm, geometric mean of MIC50 values ([1]; Gram-positive clinical isolates (E. faecium, S. aureus) with a printed MIC50): 7.0
Morphology of bacterial cells by SEM after treatment [7]: population decline, cell-size heterogeneity and cell-surface alterations in the form of protrusions
MIC [8]: 6.2 µM
MIC [9]: 1.7 µM
